{
  "source": "paper PMC8746695",
  "about": "“Zinc-Chelating Compounds as Inhibitors of Human and Bacterial Zinc Metalloproteases” (Molecules, 2021)",
  "target": "T1, MMP-14 (Homo sapiens, UniProt P50281)",
  "T1 construct": "human MT1-MMP/MMP-14 (catalytic domain); purchased Calbiochem (San Diego, CA, USA)",
  "test": "Time-dependent slow, reversible/irreversible binding of TPA to MMP-14 (pre-incubation and micro-dialysis)",
  "assay_type": "biochemical",
  "settings": "for vi/v0 MMP-14: 100 μM TPA",
  "experimental": "We tested if TPA is a time-dependent irreversible or reversible inhibitor of MMP-14. In these experiments, two different concentrations of MMP-14 (45 and 5.6 nM) were pre-incubated up to 48 min at 37 °C with 10.0 and 11.1 μM of TPA, respectively, as described in Materials and Methods. As controls, the same amount of MMP-14 (without TPA but with the same concentration of DMSO) was identically pre-incubated at 37 °C. […] In the presence of 100 μM TPA, vi/v0 was 0.61 after 2 min and 0.03 after 11 min pre-incubation at 37 °C. To determine whether the observed time-dependent inhibition was due to reversible or irreversible inhibition, a solution of 45 nM MMP-14 was first pre-incubated for approximately 40 min at 37 °C with 10 μM TPA (1% DMSO in assay buffer, pH 7.5). As a control, MMP-14 (without TPA but with the same concentration of DMSO) was also pre-incubated for approximately 40 min at 37 °C. […]\nIn pre-incubation tests with high concentration of MMP-14, 90 μL 50 nM MMP-14 was mixed with 9.0 μL 110 μM TPA (dissolved in 0.1 M Hepes pH 7.5 containing 10 mM CaCl2, 0.005% Brij-35 and 10% DMSO) and incubated at 37 °C for up to 48 min. […] At different time points, 10 μL of the enzyme (with and without TPA) was added to 90 μL of 0.1 M Hepes pH 7.5 containing 10 mM CaCl2, 0.005% Brij-35 and 11.1 μM ES001 and the initial rate reaction velocity (v) was determined as described in Section 3.4. using a Perkin Elmer LS 50 Luminescence spectrometer. […]\nIn pre-incubation tests with a low concentration of MMP-14, 60 μL 50 nM MMP-14 was mixed with 420 μL 0.1 M Hepes pH 7.5 (containing 10 mM CaCl2, 0.005% Brij-35) and 60 μL of either 0.1 M Hepes pH 7.5 containing 10 mM CaCl2, 0.005% Brij-35 and 10% DMSO (control) or 60 μL 100 μM TPA (dissolved in 0.1 M Hepes pH 7.5 containing 10 mM CaCl2, 0.005% Brij-35 and 10% DMSO). At different time points, 90 μL of the enzyme (with and without TPA) was mixed with 10 μL 100 μM ES001 and the initial rate of the reaction was determined as described above. […]",
  "data": [
    {"compound": "c1ccc(CN(Cc2ccccn2)Cc2ccccn2)nc1", "note": "[TPA, tri(2-pyridinemethyl)amine, reference compound]", "values": [
      {"measurement": "vi/v0 MMP-14", "setting": "2 min pre-incubation at 37 °C", "result": 0.61},
      {"measurement": "vi/v0 MMP-14", "setting": "11 min pre-incubation at 37 °C", "result": 0.03},
      {"measurement": "type of inhibition of MMP-14", "setting": "pre-incubation 37 °C, micro-dialysis 4 °C", "result": "slow, reversible inhibitor"}
    ]}
  ]
}
